Earlier results, collected in patent US5998407A, “Inhibitors of farnesyl-protein transferase” (Merck & Co., Inc., priority 1998, dated 1999).

Test system: farnesyl-protein transferase
Details: via inhibition of HMG-CoA reductase

| SMILES | Indirect inhibition of farnesyl-protein transferase in vivo |
| --- | --- |
| CC[C@H](C)C(=O)O[C@H]1CCC=C2C=C[C@H](C)[C@H](CC[C@@H]3C[C@@H](O)CC(=O)O3)[C@H]21 [compactin] | Indirect inhibition of farnesyl-protein transferase in vivo has been demonstrated |
| CC[C@H](C)C(=O)O[C@H]1C[C@@H](C)C=C2C=C[C@H](C)[C@H](CC[C@@H]3C[C@@H](O)CC(=O)O3)[C@H]21 [lovastatin] | Indirect inhibition of farnesyl-protein transferase in vivo has been demonstrated |
